Laboratory results as given in PubChem BioAssay AID1996.
Converted amounts (≈) assume the structure as drawn.

conditions: buffer; pH 7.4; 200.0 µM

| SMILES | solubility kinetic |
| --- | --- |
| COc1ccc(OCC(=O)OC2CCCN(C)C2)cc1.Cl (centres undefined) | > 47.4 µg/mL |
| O=c1c2ccccc2ncn1CCOCCOc1ccc([N+](=O)[O-])cc1 | 17.1 µg/mL (≈ 48.1 µM) |
| Cc1nc(SC(C)C(=O)NC2CCCCC2C)c2c(C)c(C)sc2n1 (centres undefined) | < 0.3 µg/mL |
| CCCCn1nc(C(=O)N(C)CC(=O)Nc2ccc(F)c(F)c2F)ccc1=O | > 59.5 µg/mL |
| O=C(Nc1ncccn1)c1ccc(Cl)c([N+](=O)[O-])c1 | > 41.8 µg/mL |
| Cn1c(=O)c(C(=O)c2ccccc2)c(O)c2ccccc21 | 38.8 µg/mL (≈ 139 µM) |
| CC(CCc1ccccc1)NC(=O)c1ccccc1F (centres undefined) | 34.4 µg/mL (≈ 127 µM) |
| Cc1cc(C)nc(/N=C(\NC(=O)C(C)(C)C)Nc2ccc(F)cc2)n1 | 0.5 µg/mL (≈ 1.46 µM) |
| Cc1c(Cl)c([N+](=O)[O-])nn1CC(=O)NCCCN1CCOCC1 | > 51.9 µg/mL |
| Oc1ccccc1C(=S)N1CCN(c2cccc(Cl)c2)CC1 | 20 µg/mL (≈ 60.1 µM) |
| Brc1ccc(C2=CSC3=NCCN23)cc1 | 28.9 µg/mL (≈ 103 µM) |
| Cc1nn(-c2ccccc2)c(Cl)c1C(=O)N1CCN(C)CC1 | > 47.8 µg/mL |
| CCOc1cc(C2NC(=O)c3ccccc3O2)ccc1OC (centres undefined) | 8.6 µg/mL (≈ 28.7 µM) |
| O=C(COC(=O)c1ccc(F)cc1)NCC1COc2ccccc2O1 (centres undefined) | > 51.8 µg/mL |
| O=C(O)CCCc1c(-[n+]2ccccc2)[nH]c2ccccc12.[Cl-] | > 47.5 µg/mL |
| COc1ccc(Nc2ncnc3ccc(C)cc23)cc1 | > 39.8 µg/mL |
| Cc1ccn2cc(-c3ccc(O)c(O)c3)nc2c1.Cl | 17.8 µg/mL |
| CCOc1ccc(-c2c(=O)n(O)c3ccccc3[n+]2[O-])cc1 | > 44.7 µg/mL |
| Cc1cc[n+](Cc2ccc([N+](=O)[O-])cc2)cc1.[Br-] | > 46.4 µg/mL |
| CCN(Cc1nc(-c2ccccc2)no1)C(=O)c1ccc2c(c1)OCO2 | 36.5 µg/mL (≈ 104 µM) |
| Cc1ccc(CNC(=O)c2ccc(S(=O)(=O)N(C)C)cc2)n1C | 48.6 µg/mL (≈ 145 µM) |
| Cc1ccc(C(=O)OCC(=O)N2CCCC2)cc1 | 32.7 µg/mL (≈ 132 µM) |
| Cc1cccc2cc(COC(=O)c3cccc([N+](=O)[O-])c3)c(=O)[nH]c12 | 1.5 µg/mL (≈ 4.43 µM) |
| Cc1cc(C(=O)OCC(=O)N(C)c2ccccc2)c(C)o1 | > 43.1 µg/mL |

| SMILES | solubility kinetic |
| --- | --- |
| C=CCn1c(O)c(C(CC)=NCc2ccco2)c(=O)[nH]c1=O | > 45.5 µg/mL |
| CC(C)(C)C(=O)Nc1ccc(N2CCN(S(C)(=O)=O)CC2)cc1 | 17.6 µg/mL (≈ 51.8 µM) |
| COc1ccc(Cn2cnc3c4cc(F)ccc4n(C)c3c2=O)cc1 | < 0.2 µg/mL |
| CCOc1ccc(S(=O)(=O)NCCC(=O)OCC(=O)NC(=O)c2cccn2C)cc1 | 22.2 µg/mL (≈ 50.7 µM) |
| CCOC(=O)C1CCCN(CC(=O)c2c[nH]c3ccc(C)cc23)C1 (centres undefined) | 46.5 µg/mL (≈ 142 µM) |
| COC(=O)Cn1ccc(-c2ccc(Cl)cc2)c(C#N)c1=O | > 45.4 µg/mL |
| COc1ccc(CC(=O)NCCCCc2ccccc2)cc1OC | > 49.1 µg/mL |
| Cc1ccc(N2C(=O)CC(Cc3cc(C)cc(C)c3)C2=O)cc1 (centres undefined) | 8.8 µg/mL (≈ 28.6 µM) |
| CC(C)(CN1CCCC1)NS(=O)(=O)c1ccc(Cl)cc1 | > 47.5 µg/mL |
| COc1ccc(C(=O)NC(=S)N2CCC(C)CC2)cc1Br | 8 µg/mL (≈ 21.5 µM) |
| CCC(C)c1ccc(NC(=O)N2CCOCC2)cc1 (centres undefined) | 37.4 µg/mL (≈ 143 µM) |
| CCOC(=O)c1c(O)cc(C)[nH]c1=O | > 29.6 µg/mL |
| CC1=C([N+](=O)[O-])C(c2ccc3c(c2)OCO3)N(C)C(=O)N1C (centres undefined) | 36.4 µg/mL (≈ 119 µM) |
| CN(C(=O)CSc1nc2ccccc2c(=O)n1-c1ccc(F)cc1F)C1CCS(=O)(=O)C1 (centres undefined) | > 71.9 µg/mL |
| CC(=O)Nc1ccc(NC(=O)CC(C)n2ccnc2)cc1 (centres undefined) | 40.8 µg/mL (≈ 142 µM) |
| CCC(=O)Nc1cc(-c2nc3ncccc3o2)ccc1Cl | 13.8 µg/mL (≈ 45.7 µM) |
| Cc1cc(C(=O)NCCC(C)C)c2ccccc2n1 | 31 µg/mL (≈ 121 µM) |
| Cc1cscc1NC(=O)/C=C/C(=O)O | 31.5 µg/mL (≈ 149 µM) |
| Cc1ccc(S(=O)(=O)N(C)c2ccc(OC(=O)c3cc(=O)[nH]c4ccccc34)cc2)cc1 | 2.7 µg/mL (≈ 6.02 µM) |
| CC1CCN(C(=O)COC(=O)c2ccccc2C(=O)c2ccccc2)CC1 | > 54.8 µg/mL |
| Cl.Fc1ccccc1Nc1nc(Cl)nc(Cl)n1 | > 44.3 µg/mL |
| COc1ccc(-c2nc(-c3cccnc3)no2)cc1 | 2.1 µg/mL (≈ 8.29 µM) |
| COc1ccccc1OCCNC(=O)c1ccco1 | 33.4 µg/mL (≈ 128 µM) |
| O=C(COC(=O)CC1CCCC1)Nc1ccccc1[N+](=O)[O-] | 12.1 µg/mL (≈ 39.5 µM) |

| SMILES | solubility kinetic |
| --- | --- |
| O=C1[C@@H]2CSCN2C(=O)CN1Cc1ccccc1F | > 42 µg/mL |
| c1ccc2[nH]c(-c3ccncc3)nc2c1 | > 29.3 µg/mL |
| O=C(O)CNC(=O)/C=C/c1c(Cl)cccc1Cl | > 41.1 µg/mL |
| CCOC(=O)C1=C(c2ccccc2)NC(=O)NC1c1cccc(OC)c1OC (centres undefined) | > 57.4 µg/mL |
| Br.COc1ccc(C(=O)CN2CCCCC2)cc1 | > 47.1 µg/mL |
| COc1ccccc1C1CC(=O)NC(C)=C1C(=O)OC(C)C (centres undefined) | 28.4 µg/mL (≈ 93.6 µM) |
| CCOC(=O)c1c2c3c(cccc3n(C)c1=O)C(=O)c1ccccc1-2 | 2.6 µg/mL (≈ 7.8 µM) |
| O=C(NCCN1CCOCC1)c1c(Cl)cccc1Cl | 44.9 µg/mL (≈ 148 µM) |
| Clc1ccc(CN2CCN(c3ncccn3)CC2)cc1Cl | 13 µg/mL (≈ 40.2 µM) |
| O=C(c1ccc(=O)[nH]c1)N1CCCc2ccccc21 | > 38.1 µg/mL |
| Cl.Oc1ccc(CCNc2c3ccccc3nc3ccccc23)cc1O | 44.7 µg/mL |
| Cc1ccc(C(=O)NC(C)c2ccc(S(N)(=O)=O)cc2)s1 (centres undefined) | > 48.7 µg/mL |
| COc1cccc(NC(=O)CN(C)C(=O)c2c(C)noc2C)c1 | > 47.6 µg/mL |
| CCCOC(=O)Nc1ccc(S(=O)(=O)Nc2ncccn2)cc1 | > 50.5 µg/mL |
| Cc1ccc(NC(=O)CO/N=C(\N)c2ccccc2)cc1C | 5 µg/mL (≈ 16.8 µM) |
| COc1cccc(OC)c1C(=O)Nc1ccc(Br)c(C(=O)c2ccccc2)c1 | 4.2 µg/mL (≈ 9.54 µM) |
| O=C(NCC(=O)N1CCCC1)c1ccc(Br)cc1 | > 46.7 µg/mL |
| COC(=O)c1sccc1NC(=O)c1cccs1 | < 0.6 µg/mL |
| Cn1c(N)c(C(=O)COC(=O)c2cccc(S(=O)(=O)NCc3ccccc3)c2)c(=O)n(C)c1=O | 17.6 µg/mL (≈ 36.2 µM) |
| CC(=O)Nc1ccc(S(=O)(=O)NC2CCS(=O)(=O)C2)cc1Cl (centres undefined) | 23.8 µg/mL (≈ 64.9 µM) |
| Cc1cc(C)c(NC(=O)Nc2ccccc2C)c(Cl)c1 | 0.8 µg/mL (≈ 2.77 µM) |
| NS(=O)(=O)c1ccc(NC(=O)COc2ccc(Cl)cc2)cc1 | 2.5 µg/mL (≈ 7.34 µM) |
| CC(C)(C)c1ccc(C(=O)O/N=C(\N)c2ccccn2)cc1 | 2.4 µg/mL (≈ 8.07 µM) |
| Cc1ccc(NC(=O)CN(C)C(=S)NC2CC2)cc1 | > 41.6 µg/mL |

| SMILES | solubility kinetic |
| --- | --- |
| O=S(=O)(NCc1csc(-c2cccs2)n1)c1ccccc1 | 40.6 µg/mL (≈ 121 µM) |
| CCCOc1ccc(C(C)=O)cc1Cc1c(O)[nH]c(=S)[nH]c1=O | 29.4 µg/mL (≈ 87.9 µM) |
| O=C(COC(=O)/C=C/c1ccccc1[N+](=O)[O-])NC1CC1 | > 43.5 µg/mL |
| CSc1ccc(C(=S)N2CCCCCC2)cc1 | 12.9 µg/mL (≈ 48.6 µM) |
| CN(C)C(CNC(=O)c1ccc2nccnc2c1)c1ccco1 (centres undefined) | 46.5 µg/mL (≈ 150 µM) |
| [Cl-].c1ccc(Cn2c[n+](Cc3ccccc3)c3ccccc32)cc1 | 42.9 µg/mL |
| O=C(O)c1cccc2c1C(=O)N(Cc1ccccc1)C2 | > 40.1 µg/mL |
| Cc1ccc(NC(=O)c2ccc3nccnc3c2)c(C)c1 | > 41.6 µg/mL |
| Brc1ccc(-n2cnc(-c3ccccc3)c2)cc1 | 1 µg/mL (≈ 3.34 µM) |
| O=C(COC(=O)c1ccccc1Br)NC1CCCC1 | > 48.9 µg/mL |
| COc1cc(N)ccc1-c1cc2ccccc2oc1=O | > 40.1 µg/mL |
| COc1ccc2c(c1)c(C(=O)CN1CCCCC1)c(C)n2C | 44.3 µg/mL (≈ 147 µM) |
| Cc1cc(C)c(OCCCn2ccnc2)c(C)c1 | 27.2 µg/mL (≈ 111 µM) |
| Cc1ccc2oc(C(=O)NCCC3CCCCO3)c(C)c2c1 (centres undefined) | 43.1 µg/mL (≈ 143 µM) |
| Cc1ccc2cc(C#N)c(N3CCN(C(=O)c4ccccc4)CC3)nc2c1 | 4.1 µg/mL (≈ 11.5 µM) |
| Cc1nc(Nc2ccccc2O)c2oc3ccccc3c2n1 | < 0.2 µg/mL |
| CC(C)(C)c1csc(NC(=O)C2=COCCO2)n1 | 40.2 µg/mL (≈ 150 µM) |
| Cc1ccc(NC(=O)c2ccc(Oc3ncccn3)cc2)cc1 | 5 µg/mL (≈ 16.4 µM) |
| O=C1Nc2ccccc2Nc2ccc([N+](=O)[O-])cc21 | 1.1 µg/mL (≈ 4.31 µM) |
| Cc1c(Cl)c(=O)oc2cc(OCC(=O)N3CCCC(C)C3)ccc12 (centres undefined) | 38 µg/mL (≈ 109 µM) |
| CN1C(=O)NC(c2cccc([N+](=O)[O-])c2)C2=C1CC(C)(C)CC2=O (centres undefined) | 34.6 µg/mL (≈ 105 µM) |
| O=C(NC(=S)Nc1ccc(O)cc1)c1ccccc1Cl | 20.5 µg/mL (≈ 66.8 µM) |
| CC1CCCN(C(=O)CCNC(=O)c2ccccc2Cl)C1 (centres undefined) | > 46.3 µg/mL |
| O=C(N/N=C/c1ccc2nccnc2c1)c1ccncc1 | > 41.6 µg/mL |

| SMILES | solubility kinetic |
| --- | --- |
| COc1cc(C)ccc1OCC(=O)NCC1CCCO1 (centres undefined) | > 41.9 µg/mL |
| Cc1ccc(C(=O)N2CCN(c3ccccn3)CC2)cc1[N+](=O)[O-] | 44.8 µg/mL (≈ 137 µM) |
| CCN(C(=O)C(=O)c1c[nH]c2ccccc12)c1ccccc1 | > 43.9 µg/mL |
| Cc1ccc(NC(=O)CCSc2ccccc2)c(C)c1 | < 0.6 µg/mL |
| Cc1ccc(CC(=O)NC2CCN(C)CC2)cc1 | > 37 µg/mL |
| CCC(C)N(C)C1CCN(C(=S)Nc2cccc(SC)c2)CC1 (centres undefined) | > 52.7 µg/mL |
| COc1ccc(C(CC(=O)N2CCCCC2)C(C)C)cc1 (centres undefined) | > 43.4 µg/mL |
| Cc1cc2oc(C(=O)N3CCN(Cc4ccccc4)CC3)c(C)c2cc1C | 3.7 µg/mL (≈ 10.2 µM) |
| Cc1noc2ncnc(SCc3ccc(C(F)(F)F)cc3)c12 | 1.1 µg/mL (≈ 3.38 µM) |
| COC(=O)c1cc2ccccc2n1Cc1ccc(Cl)nc1 | 1.5 µg/mL (≈ 4.99 µM) |
| CC(C)C(O)(C(=O)NNc1ccccc1)C(C)C | > 37.6 µg/mL |
| CCc1ccc(OCC(=O)NC2CC(C)(C)NC(C)(C)C2)cc1 | 44 µg/mL (≈ 138 µM) |
| CC1CCCN(S(=O)(=O)c2cccc([N+](=O)[O-])c2)C1 (centres undefined) | 13.3 µg/mL (≈ 46.8 µM) |
| CN(C(=O)c1ccccc1-c1ccccc1C(=O)O)c1ccccc1 | 44.5 µg/mL (≈ 134 µM) |
| Clc1ccc2c(NCc3ccccc3)ccnc2c1 | 19 µg/mL (≈ 70.7 µM) |
| CC(C)c1nc(Cl)c(C#N)c2c1CCC2 | 4.3 µg/mL (≈ 19.5 µM) |
| CNC(=O)C12CC3CC(C1)CC(c1ccc(C)cc1)(C3)C2 | 31.8 µg/mL (≈ 112 µM) |
| OCCC1CN(CC2CCCCC2)CCN1CC1CCCCC1 (centres undefined) | > 48.4 µg/mL |
| CCOC(=O)c1cc(C(C)(C)C)n(CCCN2CCOCC2)c1C | 47.5 µg/mL (≈ 141 µM) |
| Nc1nnc(SCC(=O)c2cccc([N+](=O)[O-])c2)s1 | > 44.4 µg/mL |
| CCn1c(=O)c(C(=O)Nc2ccccc2)c(O)c2ccccc21 | < 0.3 µg/mL |
| CCOc1ccc(-c2nc(N)ncc2-c2ccc(Cl)cc2)c(O)c1 | 0.9 µg/mL (≈ 2.63 µM) |
| Cc1ccc(Cn2ccc(O)c(Cc3ccccc3)c2=O)cc1 | < 0.7 µg/mL |
